Data from patent US20240140938A1, “PREPARATION OF TETRAHYDROINDAZOLE DERIVATIVES AS NOVEL DIACYLGLYCERIDE O-ACYLTRANSFERASE 2 INHIBITORS” (MERCK SHARP & DOHME LLC, priority 2020, published 2024).

Target: human DGAT2 (hDGAT2) (Homo sapiens (Human), UniProt Q96PD7)
Assay: DGAT2 Enzymatic Activity Assay
Type: biochemical
Conditions: hDGAT2 Sf-9 membrane prep; 13C18-triolein product by LC/MS/MS; 25 μM diolein, 5 μM 13C oleoyl-CoA
Description: Sf-9 insect cells were maintained in Grace's insect cell culture medium with 10% heated-inactivated fetal bovine serum, 1% Pluronic F-68 and 0.14 μg/ml Kanamycine sulfate at 27° C. in a shaker incubator. After infection with untagged baculovirus expressing human DGAT2 (hDGAT2) at multiplicity of infection (MOI) 3 for 48 hours, cells were harvested. Cell pellets were suspended in buffer containing 10 mM Tris-HCl pH 7.5, 1 mM EDTA, 250 mM sucrose and Complete Protease Inhibitor Cocktail (Sigma Aldrich), and sonicated on ice. Cell debris were removed by centrifugation at 2000×g for 15 minutes. Membrane fractions were isolated by ultracentrifugation (100,000×g), resuspended in the same buffer, and frozen (−80° C.) for later use. The protein concentration was determined with the Pierce™ BCA Protein Assay Kit (Thermo Fisher Scientific).
LC/MS/MS analyses were performed using Thermal Fisher's LX4-TSQ Vantage system. This system consists of an Agilent binary high-performance liquid chromatography (HPLC) pump and a TSQ Vantage triple quadrupole MS/MS instrument. For each sample, 2 μL samples from the top organic layer of in-plate liquid-liquid extraction were injected onto a Thermo Betabasic C4 column (2.1 mm×20 mm, 5 μm particle size). The samples were then eluted using the following conditions; mobile phase: Isopropanol: acetonitrile/10 mM ammonium formate=50/35/15 (v/v/v), flow rate: 0.8 mL/min, temperature: 25° C. Data was acquired in positive mode using a heated electrospray ionization (HESI) interface. […] The peak area was integrated by Xcalibur Quan software. The ratio between the ^13C18triolein generated in the reaction and spiked in internal standard ^13C21-triolein was used to generate percentage inhibition and IC50 values. Compound percentage inhibition was calculated by the following formula: Inhibition %=1−[(compound response−low control)/(high control−low control)]×100%.
DGAT2 activity was determined by measuring the amount of enzymatic product ^13C18-triolein (^13C-1,2,3-Tri(cis-9-octadecenoyl)glycerol) using the membrane prep mentioned above. The assay was carried out in ABgene 384-well assay plates in a final volume of 25 μL at rt.

human DGAT2 (hDGAT2), sequence (Q96PD7 whole entry): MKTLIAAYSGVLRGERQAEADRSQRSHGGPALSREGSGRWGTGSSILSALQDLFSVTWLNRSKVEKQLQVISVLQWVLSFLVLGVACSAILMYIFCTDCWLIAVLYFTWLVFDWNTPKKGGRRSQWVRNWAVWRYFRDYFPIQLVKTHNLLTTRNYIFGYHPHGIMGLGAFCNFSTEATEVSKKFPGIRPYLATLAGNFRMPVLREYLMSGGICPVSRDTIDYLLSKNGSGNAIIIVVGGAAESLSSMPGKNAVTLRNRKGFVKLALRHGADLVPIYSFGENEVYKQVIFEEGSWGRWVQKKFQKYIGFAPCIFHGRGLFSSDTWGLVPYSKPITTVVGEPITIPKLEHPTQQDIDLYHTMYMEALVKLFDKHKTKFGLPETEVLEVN

IC50 [nM] | Compound
0.33 | CC1(NC(=O)C2COc3c(-c4cccc(OC(F)F)c4)nn(-c4ccc(F)cn4)c3C2)CS(=O)(=O)C1 (racemic) [Example 119, 3-(3-(difluoromethoxy)phenyl)-1-(5-fluoropyridin-2-yl)-N-(3-methyl-1,1-dioxidothietan-3-yl)-1,5,6,7-tetrahydropyrano[3,2-c]pyrazole-6-carboxamide]
204 | CC(C)n1nc(-c2cncc(OC(F)(F)C(F)F)c2)c2c1C[C@H](C(=O)NC1(C)CCS(=O)(=O)CC1)CC2 [Example 106, (R)-1-isopropyl-N-(4-methyl-1,1-dioxidotetrahydro-2H-thiopyran-4-yl)-3-(5-(1,1,2,2-tetrafluoroethoxy)pyridin-3-yl)-4,5,6,7-tetrahydro-1H-indazole-6-carboxamide]
4.6 | CC(C)n1nc(-c2cc(OCC(F)F)ncc2F)c2c1C[C@H](C(=O)NC1(C)CCS(=O)(=O)CC1)CC2 [Example 40, (R)-3-(2-(2,2-difluoroethoxy)-5-fluoropyridin-4-yl)-1-isopropyl-N-(4-methyl-1,1-dioxidotetrahydro-2H-thiopyran-4-yl)-4,5,6,7-tetrahydro-1H-indazole-6-carboxamide]
2070 | CC(n1nc(-c2cccc(OC(F)F)c2)c2c1C[C@H](C(=O)NC1(C)CCS(=O)(=O)CC1)CC2)C(C)(C)O (single isomer, unassigned) [Example 111a]
144 | CCOc1cc(-c2nn(C(C)C)c3c2CC[C@@H](C(=O)NC2(C)CCS(=O)(=O)CC2)C3)c(F)cn1 [Example 22, (R)-3-(2-ethoxy-5-fluoropyridin-4-yl)-1-isopropyl-N-(4-methyl-1,1-dioxidotetrahydro-2H-thiopyran-4-yl)-4,5,6,7-tetrahydro-1H-indazole-6-carboxamide]
7.7 | CCOc1cc(-c2nn(C(C)C)c3c2CC[C@@H](C(=O)NC2(C)CCS(=O)(=O)CC2)C3)c(Cl)cn1 [Example 39, (R)-3-(5-chloro-2-ethoxypyridin-4-yl)-1-isopropyl-N-(4-methyl-1,1-dioxidotetrahydro-2H-thiopyran-4-yl)-4,5,6,7-tetrahydro-1H-indazole-6-carboxamide]
> 10000 | C[C@]1(NC(=O)[C@@H]2CCc3c(-c4cccc(OC(F)F)c4)nn(CC4CCOCC4)c3C2)CCS(=O)(=O)C1 [Example 78, (R)-3-(3-(difluoromethoxy)phenyl)-N-((S)-3-methyl-1,1-dioxidotetrahydrothiophen-3-yl)-1-((tetrahydro-2H-pyran-4-yl)methyl)-4,5,6,7-tetrahydro-1H-indazole-6-carboxamide]
4.7 | CC(C)n1nc(-c2cc(OC(F)F)ccc2F)c2c1C[C@H](C(=O)NC1(C#N)CCS(=O)(=O)CC1)CC2 [Example 52, (R)-N-(4-cyano-1,1-dioxidotetrahydro-2H-thiopyran-4-yl)-3-(5-(difluoromethoxy)-2-fluorophenyl)-1-isopropyl-4,5,6,7-tetrahydro-1H-indazole-6-carboxamide]
56.4 | CC(C)n1nc(-c2cccc(OC(F)F)c2)c2c1CC(C(=O)NC1(C)CC(F)(F)C1)CO2 (racemic) [Example 124, N-(3,3-difluoro-1-methylcyclobutyl)-3-(3-(difluoromethoxy)phenyl)-1-isopropyl-1,5,6,7-tetrahydropyrano[3,2-c]pyrazole-6-carboxamide]
3.6 | CCOc1cc(F)c(F)c(-c2nn(C(C)C)c3c2CC[C@@H](C(=O)NC2(C)CS(=O)(=O)C2)C3)c1 [Example 87, (R)-3-(5-ethoxy-2,3-difluorophenyl)-1-isopropyl-N-(3-methyl-1,1-dioxidothietan-3-yl)-4,5,6,7-tetrahydro-1H-indazole-6-carboxamide]
414 | CC(C)n1nc(-c2cncc(OC(F)F)c2)c2c1C[C@H](C(=O)NC1(C)CCS(=O)(=O)CC1)CC2 [Example 56, (R)-3-(5-(difluoromethoxy)pyridin-3-yl)-1-isopropyl-N-(4-methyl-1,1-dioxidotetrahydro-2H-thiopyran-4-yl)-4,5,6,7-tetrahydro-1H-indazole-6-carboxamide]
0.6 | CC(C(F)F)n1nc(-c2cc(OC(F)F)ccc2F)c2c1C[C@H](C(=O)NC1(C)CCS(=O)(=O)CC1)CC2 (single isomer, unassigned) [Example 49b]
> 10000 | CC(=O)n1nc(-c2cccc(OC(F)F)c2)c2c1C[C@H](C(=O)N[C@@]1(C)CCS(=O)(=O)C1)CC2 [Example 73, (R)-1-acetyl-3-(3-(difluoromethoxy)phenyl)-N-((S)-3-methyl-1,1-dioxidotetrahydrothiophen-3-yl)-4,5,6,7-tetrahydro-1H-indazole-6-carboxamide]
68.1 | CC1(NC(=O)[C@@H]2CCc3c(-c4cc(OC(F)F)ccc4F)nn(S(=O)(=O)C4CC4)c3C2)CS(=O)(=O)C1 [Example 116, (R)-1-(cyclopropylsulfonyl)-3-(5-(difluoromethoxy)-2-fluorophenyl)-N-(3-methyl-1,1-dioxidothietan-3-yl)-4,5,6,7-tetrahydro-1H-indazole-6-carboxamide]
24.5 | CC(C)Oc1ccc(F)c(-c2nn(C(C)C)c3c2CC[C@@H](C(=O)NC2(C)CS(=O)(=O)C2)C3)c1 [Example 81, (R)-3-(2-fluoro-5-isopropoxyphenyl)-1-isopropyl-N-(3-methyl-1,1-dioxidothietan-3-yl)-4,5,6,7-tetrahydro-1H-indazole-6-carboxamide]
21.5 | CC(C)n1nc(-c2cc(OC(F)F)ccc2F)c2c1CC(C(=O)NC1(C)CS(=O)(=O)C1)CO2 (racemic) [Example 121, 3-(5-(difluoromethoxy)-2-fluorophenyl)-1-isopropyl-N-(3-methyl-1,1-dioxidothietan-3-yl)-1,5,6,7-tetrahydropyrano[3,2-c]pyrazole-6-carboxamide]
144 | C[C@]1(NC(=O)[C@@H]2CCc3c(-c4cccc(OC(F)F)c4)nn(C4CCS(=O)(=O)CC4)c3C2)CCS(=O)(=O)C1 [Example 24, (R)-3-(3-(difluoromethoxy)phenyl)-1-(1,1-dioxidotetrahydro-2H-thiopyran-4-yl)-N-((S)-3-methyl-1,1-dioxidotetrahydrothiophen-3-yl)-4,5,6,7-tetrahydro-1H-indazole-6-carboxamide]
577 | C[C@]1(NC(=O)[C@@H]2CCc3c(-c4cccc(OC(F)F)c4)nn(Cc4ccccc4)c3C2)CCS(=O)(=O)C1 [Example 77, (R)-1-benzyl-3-(3-(difluoromethoxy)phenyl)-N-((S)-3-methyl-1,1-dioxidotetrahydrothiophen-3-yl)-4,5,6,7-tetrahydro-1H-indazole-6-carboxamide]
3.3 | CCOc1cccc(-c2nn(C(C)C)c3c2CC[C@@H](C(=O)NC2(C)CCS(=O)(=O)CC2)C3)c1 [Example 33, (R)-3-(3-ethoxyphenyl)-1-isopropyl-N-(4-methyl-1,1-dioxidotetrahydro-2H-thiopyran-4-yl)-4,5,6,7-tetrahydro-1H-indazole-6-carboxamide]
> 10000 | CC(C)(N)c1cccc(-c2nn(-c3ccc(F)cc3)c3c2CC[C@@H](C(=O)N[C@@]2(C)CCS(=O)(=O)C2)C3)c1 [Example 18, (R)-3-(3-(2-aminopropan-2-yl)phenyl)-1-(4-fluorophenyl)-N-((S)-3-methyl-1,1-dioxidotetrahydrothiophen-3-yl)-4,5,6,7-tetrahydro-1H-indazole-6-carboxamide]
24.7 | CC(C)n1nc(-c2cccc(OC(F)F)c2)c2c1C[C@H](C(=O)NC1(C)CCS(=O)(=O)CC1)CC2 [Example 31, (R)-3-(3-(difluoromethoxy)phenyl)-1-isopropyl-N-(4-methyl-1,1-dioxidotetrahydro-2H-thiopyran-4-yl)-4,5,6,7-tetrahydro-1H-indazole-6-carboxamide]
353 | CC(C)n1nc(-c2cccc(OC(F)(F)C(F)F)c2)c2c1C[C@H](C(=O)NC1(C)CCS(=O)(=O)CC1)CC2 [Example 36, (R)-1-isopropyl-N-(4-methyl-1,1-dioxidotetrahydro-2H-thiopyran-4-yl)-3-(3-(1,1,2,2-tetrafluoroethoxy)phenyl)-4,5,6,7-tetrahydro-1H-indazole-6-carboxamide]
1.8 | CCOc1ccc(F)c(-c2nn(C(C)C)c3c2CC[C@@H](C(=O)NC2(C)CCS(=O)(=O)CC2)C3)c1 [Example 54, (R)-3-(5-ethoxy-2-fluorophenyl)-1-isopropyl-N-(4-methyl-1,1-dioxidotetrahydro-2H-thiopyran-4-yl)-4,5,6,7-tetrahydro-1H-indazole-6-carboxamide]
117 | CCOc1cc(-c2nn(C(C)C)c3c2CC[C@@H](C(=O)NC2(C)CS(=O)(=O)C2)C3)c(F)cn1 [Example 34, (R)-3-(2-ethoxy-5-fluoropyridin-4-yl)-1-isopropyl-N-(3-methyl-1,1-dioxidothietan-3-yl)-4,5,6,7-tetrahydro-1H-indazole-6-carboxamide]
